According to the NIST ThermoML archive (doi:10.1021/acs.jced.8b00153):
Values joined by “and” are separate entries in the source; they are usually repeats but may differ in a detail not shown here. Identical values can stand only once.

Conditions: for speed of sound / mass density / viscosity / vapor or sublimation pressure: Liquid; for speed of sound: Frequency=3 MHz, Single path-length method; for mass density: Vibrating tube method; for surface tension liquid-gas: Drop volume; for viscosity: Capillary tube (Ostwald / Ubbelohde) method; for vapor or sublimation pressure: Ebulliometric method (Recirculating still)

CCc1ccco1 [2-ethylfuran]
Conditions	mass density	speed of sound [m/s]	viscosity [mPa·s]
313.15 K, 100 kPa	882.52 kg/m3 and 882.49 kg/m3	1129.2	–
313.15 K, 2000 kPa	884.62 kg/m3	–	–
313.15 K, 5000 kPa	887.63 kg/m3	–	–
313.15 K, 7000 kPa	889.75 kg/m3	–	–
313.15 K, 10000 kPa	892.61 kg/m3	–	–
313.15 K, 15000 kPa	897.4 kg/m3	–	–
313.15 K, 20000 kPa	901.8 kg/m3	–	–
313.15 K, 25000 kPa	906.18 kg/m3	–	–
313.15 K, 30000 kPa	910.18 kg/m3	–	–
313.15 K, 35000 kPa	914.06 kg/m3	–	–
313.15 K, 40000 kPa	917.85 kg/m3	–	–
313.15 K, 45000 kPa	921.58 kg/m3	–	–
313.15 K, 50000 kPa	925.04 kg/m3	–	–
313.15 K, 55000 kPa	928.5 kg/m3	–	–
313.15 K, 60000 kPa	931.93 kg/m3	–	–
313.15 K, 65000 kPa	935.06 kg/m3	–	–
315.65 K, 100 kPa	879.73 kg/m3	1118.1	0.4049
318.15 K, 100 kPa	876.92 kg/m3 and 876.88 kg/m3	1107.4	0.3962
318.15 K, 2000 kPa	879.13 kg/m3	–	–
318.15 K, 5000 kPa	882.2 kg/m3	–	–
318.15 K, 7000 kPa	884.37 kg/m3	–	–
318.15 K, 10000 kPa	887.44 kg/m3	–	–
318.15 K, 15000 kPa	892.29 kg/m3	–	–
318.15 K, 20000 kPa	896.91 kg/m3	–	–
318.15 K, 25000 kPa	901.27 kg/m3	–	–
318.15 K, 30000 kPa	905.42 kg/m3	–	–
318.15 K, 35000 kPa	909.5 kg/m3	–	–
318.15 K, 40000 kPa	913.4 kg/m3	–	–
318.15 K, 45000 kPa	917.1 kg/m3	–	–
318.15 K, 50000 kPa	920.67 kg/m3	–	–
318.15 K, 55000 kPa	924.18 kg/m3	–	–
318.15 K, 60000 kPa	927.71 kg/m3	–	–
318.15 K, 65000 kPa	930.91 kg/m3	–	–
320.65 K, 100 kPa	874.11 kg/m3	1096.5	0.3885
323.15 K, 100 kPa	871.29 kg/m3 and 871.23 kg/m3	1085.6	0.3794
323.15 K, 2000 kPa	873.56 kg/m3	–	–
323.15 K, 5000 kPa	876.77 kg/m3	–	–
323.15 K, 7000 kPa	878.96 kg/m3	–	–
323.15 K, 10000 kPa	882.17 kg/m3	–	–
323.15 K, 15000 kPa	887.15 kg/m3	–	–
323.15 K, 20000 kPa	891.93 kg/m3	–	–
323.15 K, 25000 kPa	896.47 kg/m3	–	–
323.15 K, 30000 kPa	900.65 kg/m3	–	–
323.15 K, 35000 kPa	904.8 kg/m3	–	–
323.15 K, 40000 kPa	908.8 kg/m3	–	–
323.15 K, 45000 kPa	912.67 kg/m3	–	–
323.15 K, 50000 kPa	916.35 kg/m3	–	–
323.15 K, 55000 kPa	919.97 kg/m3	–	–
323.15 K, 60000 kPa	923.48 kg/m3	–	–
323.15 K, 65000 kPa	926.81 kg/m3	–	–
325.65 K, 100 kPa	868.46 kg/m3	1074.8	0.3706
328.15 K, 100 kPa	865.62 kg/m3 and 865.59 kg/m3	1063.8	0.3619
328.15 K, 2000 kPa	867.92 kg/m3	–	–
328.15 K, 5000 kPa	871.27 kg/m3	–	–
328.15 K, 7000 kPa	873.57 kg/m3	–	–
328.15 K, 10000 kPa	876.84 kg/m3	–	–
328.15 K, 15000 kPa	882.03 kg/m3	–	–
328.15 K, 20000 kPa	886.97 kg/m3	–	–
328.15 K, 25000 kPa	891.57 kg/m3	–	–
328.15 K, 30000 kPa	895.96 kg/m3	–	–
328.15 K, 35000 kPa	900.23 kg/m3	–	–
328.15 K, 40000 kPa	904.35 kg/m3	–	–
328.15 K, 45000 kPa	908.24 kg/m3	–	–
328.15 K, 50000 kPa	912.04 kg/m3	–	–
328.15 K, 55000 kPa	915.63 kg/m3	–	–
328.15 K, 60000 kPa	919.32 kg/m3	–	–
328.15 K, 65000 kPa	922.64 kg/m3	–	–
330.65 K, 100 kPa	862.76 kg/m3	1053.7	0.3536
333.15 K, 100 kPa	859.9 kg/m3 and 859.9 kg/m3	1042.2	0.3455
333.15 K, 2000 kPa	862.3 kg/m3	–	–
333.15 K, 5000 kPa	865.81 kg/m3	–	–
333.15 K, 7000 kPa	868.2 kg/m3	–	–
333.15 K, 10000 kPa	871.58 kg/m3	–	–
333.15 K, 15000 kPa	876.87 kg/m3	–	–
333.15 K, 20000 kPa	881.93 kg/m3	–	–
333.15 K, 25000 kPa	886.74 kg/m3	–	–
333.15 K, 30000 kPa	891.26 kg/m3	–	–
333.15 K, 35000 kPa	895.59 kg/m3	–	–
333.15 K, 40000 kPa	899.79 kg/m3	–	–
333.15 K, 45000 kPa	903.78 kg/m3	–	–
333.15 K, 50000 kPa	907.66 kg/m3	–	–
333.15 K, 55000 kPa	911.34 kg/m3	–	–
333.15 K, 60000 kPa	915.07 kg/m3	–	–
333.15 K, 65000 kPa	918.6 kg/m3	–	–
335.65 K, 100 kPa	857.02 kg/m3	1032.1	0.3372
338.15 K, 100 kPa	854.13 kg/m3 and 854.07 kg/m3	1020.5	0.33
338.15 K, 2000 kPa	856.63 kg/m3	–	–
338.15 K, 5000 kPa	860.21 kg/m3	–	–
338.15 K, 7000 kPa	862.69 kg/m3	–	–
338.15 K, 10000 kPa	866.19 kg/m3	–	–
338.15 K, 15000 kPa	871.73 kg/m3	–	–
338.15 K, 20000 kPa	876.98 kg/m3	–	–
338.15 K, 25000 kPa	881.86 kg/m3	–	–
338.15 K, 30000 kPa	886.43 kg/m3	–	–
338.15 K, 35000 kPa	890.92 kg/m3	–	–
338.15 K, 40000 kPa	895.2 kg/m3	–	–
338.15 K, 45000 kPa	899.36 kg/m3	–	–
338.15 K, 50000 kPa	903.34 kg/m3	–	–
338.15 K, 55000 kPa	907.07 kg/m3	–	–
338.15 K, 60000 kPa	910.92 kg/m3	–	–
338.15 K, 65000 kPa	914.41 kg/m3	–	–

Conditions	surface tension liquid-gas [mN/m]	vapor or sublimation pressure [kPa]
315.65 K	22.66	–
317.62 K	–	18.64
318.15 K	22.3	–
320.45 K	–	20.98
320.65 K	22.07	–
322.48 K	–	22.8
323.15 K	21.77	–
324.89 K	–	25.18
325.65 K	21.4	–
327.06 K	–	27.46
328.15 K	21.08	–
329.8 K	–	30.6
330.65 K	20.87	–
331.39 K	–	32.49
333.15 K	20.5	–
333.19 K	–	34.85
334.73 K	–	36.94
335.65 K	20.28	–
336.84 K	–	39.92
338.15 K	19.95	–
338.83 K	–	42.91
340.3 K	–	45.25
342.6 K	–	49.13
344.85 K	–	53.18
347.05 K	–	57.4
348.94 K	–	61.22
350.71 K	–	64.98
352.9 K	–	69.89
354.83 K	–	74.51
356.8 K	–	79.34
358.65 K	–	84.17
360.61 K	–	89.59
361.79 K	–	92.94
362.46 K	–	94.88
363.67 K	–	98.45
364.18 K	–	100.08
364.61 K	–	101.33
